# Measured values taken from US20050048001A1, “Pharmaceutical formulations of salmeterol” (priority 1999, published 2005).
# Assay: Solubility of forms of salmeterol in ethanol/HFA mixtures
# Type: physicochemical
# Conditions: mixtures of ethanol/HFA134a and ethanol/HFA227; relative to racemic salmeterol xinafoate
# Excerpt: FIG. 6: Chart to show the solubility of various forms of salmeterol in a number of different solvents.
row,SMILES,solubility
1,O=C(O)c1ccc2ccccc2c1O.OCc1cc(C(O)CNCCCCCCOCCCCc2ccccc2)ccc1O (centres unmarked) [R-salmeterol xinafoate],significantly more soluble
2,"OCc1cc(C(O)CNCCCCCCOCCCCc2ccccc2)ccc1O (stereo not drawn) [salmeterol base, 4-hydroxy-α^1-[[[6-(4-phenylbutoxy)hexyl]amino]methyl]-1,3-benzenedimethanol]",substantially more soluble
